According to the kinase profiling compilation of Christmann-Franck et al. (2016):

Columns and labels:
IRAK4 (human) = IRAK4 (human) (UniProt Q9NWZ3); experiment: SelectScreen, TR FRET
ROCK2 (human) = ROCK2 (human) (UniProt O75116); experiment: SelectScreen, TR FRET
CHEK2 (human) = CHEK2 (human) (UniProt O96017); experiment: SelectScreen, TR FRET
[1] = tested on: RAF1 (human), P04049 [Y340D/Y341D]; experiment: SelectScreen, TR FRET
IRAK1 (human) [2] = biological target: IRAK1 (human) (UniProt P51617); experiment: SelectScreen, TR FRET
SRPK1 (human) = SRPK1 (human) (UniProt Q96SB4); experiment: SelectScreen, TR FRET
CHEK1 (human) = CHEK1 (human) (UniProt O14757); experiment: SelectScreen, TR FRET
AKT2 (human) = AKT2 (human) (UniProt P31751); experiment: SelectScreen, TR FRET
MAPK13 (human) = MAPK13 (human) (UniProt O15264); experiment: SelectScreen, TR FRET
TEK (human) = TEK (human) (UniProt Q02763); experiment: SelectScreen, TR FRET
RPS6KB1 (human) = RPS6KB1 (human) (UniProt P23443); experiment: SelectScreen, TR FRET
TBK1 (human) = TBK1 (human) (UniProt Q9UHD2); experiment: SelectScreen, TR FRET
TAOK2 (human) = TAOK2 (human) (UniProt Q9UL54); experiment: SelectScreen, TR FRET
JAK3 JH1 JH2 (human) = JAK3 JH1 JH2 (human) (UniProt P52333); experiment: SelectScreen, TR FRET
IKBKB (human) = IKBKB (human) (UniProt O14920); experiment: SelectScreen, TR FRET
CDK7 CCNH MNAT1 (human) = CDK7 CCNH MNAT1 (human) (UniProt P50613+P51948+P51946); experiment: SelectScreen, TR FRET
NEK6 (human) = NEK6 (human) (UniProt Q9HC98); experiment: SelectScreen, TR FRET
PIM1 (human) = PIM1 (human) (UniProt P11309); experiment: SelectScreen, TR FRET
AURKB (human) = AURKB (human) (UniProt Q96GD4); experiment: SelectScreen, TR FRET
LCK (human) = LCK (human) (UniProt P06239); experiment: SelectScreen, TR FRET
[3] = biological target: PRKAA1 PRKAB1 PRKAG1 (human) (UniProt P54619+Q13131+Q9Y478); experiment: SelectScreen, TR FRET; conditions: compound 0.1 µM
[4] = tested on: FLT3 (human), P36888 [D835Y]; experiment: radiometric filter-binding kinase assay, Kinaseprofiler; conditions: compound 1.0 µM; ATP 200 µM
EPHB1 (human) = EPHB1 (human) (UniProt P54762); experiment: as above; conditions: compound 1.0 µM; ATP 200 µM
BRSK1 (human) = BRSK1 (human) (UniProt Q8TDC3); experiment: as above; conditions: compound 1.0 µM; ATP 200 µM
IRAK1 (human) [5] = biological target: IRAK1 (human) (UniProt P51617); experiment: as above; conditions: compound 1.0 µM; ATP 45 µM
SYK (human) = SYK (human) (UniProt P43405); experiment: as above; conditions: compound 1.0 µM; ATP 15 µM
[6] = tested on: GSK3B (human), P49841 [H350L]; experiment: as above; conditions: compound 1.0 µM; ATP 15 µM
PRKCQ (human) = PRKCQ (human) (UniProt Q04759); experiment: as above; conditions: compound 1.0 µM; ATP 15 µM
FLT3 (human) = FLT3 (human) (UniProt P36888); experiment: as above; conditions: compound 1.0 µM; ATP 200 µM
FRK (human) = FRK (human) (UniProt P42685); experiment: as above; conditions: compound 1.0 µM; ATP 155 µM

Sequence of PIM1 (human) (P11309 whole entry, looked up): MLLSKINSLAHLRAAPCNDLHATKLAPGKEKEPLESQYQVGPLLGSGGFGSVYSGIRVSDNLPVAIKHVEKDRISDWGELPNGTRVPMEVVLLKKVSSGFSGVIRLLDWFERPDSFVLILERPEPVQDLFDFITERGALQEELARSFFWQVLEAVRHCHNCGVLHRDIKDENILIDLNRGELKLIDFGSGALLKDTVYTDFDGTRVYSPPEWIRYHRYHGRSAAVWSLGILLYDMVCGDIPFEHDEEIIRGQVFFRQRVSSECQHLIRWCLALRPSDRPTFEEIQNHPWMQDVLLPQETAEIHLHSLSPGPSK
Sequence of RAF1 (human), P04049 [Y340D/Y341D] (P04049 whole entry Y340D/Y341D, looked up): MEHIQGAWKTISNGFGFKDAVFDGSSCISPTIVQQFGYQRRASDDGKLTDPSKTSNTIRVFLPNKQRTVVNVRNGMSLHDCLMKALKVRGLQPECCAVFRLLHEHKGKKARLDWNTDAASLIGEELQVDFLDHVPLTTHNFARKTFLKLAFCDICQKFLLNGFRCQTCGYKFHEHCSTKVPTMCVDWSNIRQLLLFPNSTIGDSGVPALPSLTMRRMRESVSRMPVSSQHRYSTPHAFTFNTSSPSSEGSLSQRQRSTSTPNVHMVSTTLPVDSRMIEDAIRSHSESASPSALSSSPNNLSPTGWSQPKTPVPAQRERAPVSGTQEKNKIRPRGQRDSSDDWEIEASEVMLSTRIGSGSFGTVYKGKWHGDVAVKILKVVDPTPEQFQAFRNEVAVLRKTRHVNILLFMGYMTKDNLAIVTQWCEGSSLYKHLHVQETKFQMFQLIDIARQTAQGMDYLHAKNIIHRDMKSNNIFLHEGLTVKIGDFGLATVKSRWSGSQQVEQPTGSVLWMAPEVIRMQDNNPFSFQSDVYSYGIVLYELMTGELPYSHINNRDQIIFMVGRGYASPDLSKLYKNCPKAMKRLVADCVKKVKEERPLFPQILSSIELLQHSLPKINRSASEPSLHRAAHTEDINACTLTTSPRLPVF
Sequence of IRAK4 (human) (Q9NWZ3 whole entry, looked up): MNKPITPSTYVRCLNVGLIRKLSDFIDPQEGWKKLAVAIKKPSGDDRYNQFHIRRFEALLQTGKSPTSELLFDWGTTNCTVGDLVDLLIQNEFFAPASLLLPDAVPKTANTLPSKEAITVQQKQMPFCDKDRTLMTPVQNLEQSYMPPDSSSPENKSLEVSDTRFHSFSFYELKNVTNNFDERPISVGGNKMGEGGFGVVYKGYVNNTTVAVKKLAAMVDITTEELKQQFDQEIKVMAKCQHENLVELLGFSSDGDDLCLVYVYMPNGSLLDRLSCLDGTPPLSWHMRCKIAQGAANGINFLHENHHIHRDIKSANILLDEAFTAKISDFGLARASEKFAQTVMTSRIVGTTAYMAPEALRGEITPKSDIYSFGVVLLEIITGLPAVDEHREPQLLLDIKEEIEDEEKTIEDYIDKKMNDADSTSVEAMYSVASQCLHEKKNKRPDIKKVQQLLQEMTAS
Sequence of RPS6KB1 (human) (P23443 whole entry, looked up): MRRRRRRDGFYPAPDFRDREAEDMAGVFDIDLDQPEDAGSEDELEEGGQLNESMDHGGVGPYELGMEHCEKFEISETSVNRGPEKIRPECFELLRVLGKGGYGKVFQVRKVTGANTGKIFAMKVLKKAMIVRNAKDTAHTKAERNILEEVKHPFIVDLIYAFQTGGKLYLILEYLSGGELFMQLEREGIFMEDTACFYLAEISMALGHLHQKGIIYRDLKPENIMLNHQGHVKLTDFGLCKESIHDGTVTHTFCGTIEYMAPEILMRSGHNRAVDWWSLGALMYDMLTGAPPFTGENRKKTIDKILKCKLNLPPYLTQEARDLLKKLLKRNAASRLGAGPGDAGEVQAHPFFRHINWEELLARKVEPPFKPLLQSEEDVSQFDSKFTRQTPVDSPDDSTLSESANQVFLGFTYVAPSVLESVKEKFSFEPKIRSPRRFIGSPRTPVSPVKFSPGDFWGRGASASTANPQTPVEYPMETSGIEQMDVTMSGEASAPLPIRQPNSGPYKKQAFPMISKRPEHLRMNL
Sequence of MAPK13 (human) (O15264 whole entry, looked up): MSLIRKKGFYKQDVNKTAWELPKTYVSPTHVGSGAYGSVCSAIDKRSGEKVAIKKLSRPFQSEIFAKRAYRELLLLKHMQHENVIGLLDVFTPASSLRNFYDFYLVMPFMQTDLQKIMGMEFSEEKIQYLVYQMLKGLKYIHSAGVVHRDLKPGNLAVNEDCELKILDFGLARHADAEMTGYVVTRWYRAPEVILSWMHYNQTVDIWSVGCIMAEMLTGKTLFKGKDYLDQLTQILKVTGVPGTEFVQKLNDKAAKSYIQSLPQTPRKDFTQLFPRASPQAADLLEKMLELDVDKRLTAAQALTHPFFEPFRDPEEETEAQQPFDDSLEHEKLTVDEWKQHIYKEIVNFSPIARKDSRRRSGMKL
Sequence of LCK (human) (P06239 whole entry, looked up): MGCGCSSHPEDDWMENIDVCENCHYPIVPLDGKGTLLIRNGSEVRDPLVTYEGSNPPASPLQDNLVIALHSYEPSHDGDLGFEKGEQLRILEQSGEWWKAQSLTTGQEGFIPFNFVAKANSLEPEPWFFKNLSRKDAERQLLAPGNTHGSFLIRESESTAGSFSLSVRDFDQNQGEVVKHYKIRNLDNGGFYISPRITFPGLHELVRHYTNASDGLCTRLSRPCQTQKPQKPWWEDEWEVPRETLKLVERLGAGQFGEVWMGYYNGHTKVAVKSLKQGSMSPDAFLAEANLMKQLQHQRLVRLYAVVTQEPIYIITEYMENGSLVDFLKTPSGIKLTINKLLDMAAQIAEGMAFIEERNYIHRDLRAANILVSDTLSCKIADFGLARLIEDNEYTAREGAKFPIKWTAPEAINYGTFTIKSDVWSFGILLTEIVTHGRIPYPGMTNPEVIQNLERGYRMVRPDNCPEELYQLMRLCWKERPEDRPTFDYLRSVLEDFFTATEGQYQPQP
Sequence of SRPK1 (human) (Q96SB4 whole entry, looked up): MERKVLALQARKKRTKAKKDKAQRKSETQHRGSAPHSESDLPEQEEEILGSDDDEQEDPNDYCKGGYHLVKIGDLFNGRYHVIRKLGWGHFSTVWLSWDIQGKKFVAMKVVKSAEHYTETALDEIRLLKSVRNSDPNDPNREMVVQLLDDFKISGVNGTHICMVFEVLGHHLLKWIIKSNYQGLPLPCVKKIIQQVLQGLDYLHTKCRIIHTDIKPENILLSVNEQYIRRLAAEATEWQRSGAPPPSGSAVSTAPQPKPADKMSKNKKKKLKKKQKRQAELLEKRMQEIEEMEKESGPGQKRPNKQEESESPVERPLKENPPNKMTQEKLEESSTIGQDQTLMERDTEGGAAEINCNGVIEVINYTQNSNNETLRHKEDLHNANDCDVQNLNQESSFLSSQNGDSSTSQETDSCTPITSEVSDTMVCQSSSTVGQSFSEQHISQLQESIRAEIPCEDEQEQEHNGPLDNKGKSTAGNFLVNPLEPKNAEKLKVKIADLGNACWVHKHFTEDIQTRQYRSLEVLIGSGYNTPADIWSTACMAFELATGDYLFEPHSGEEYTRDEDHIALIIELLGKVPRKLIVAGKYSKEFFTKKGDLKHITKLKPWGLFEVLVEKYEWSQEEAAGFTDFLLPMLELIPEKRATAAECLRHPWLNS
Sequence of CDK7 CCNH MNAT1 (human) (P50613 whole entry, looked up): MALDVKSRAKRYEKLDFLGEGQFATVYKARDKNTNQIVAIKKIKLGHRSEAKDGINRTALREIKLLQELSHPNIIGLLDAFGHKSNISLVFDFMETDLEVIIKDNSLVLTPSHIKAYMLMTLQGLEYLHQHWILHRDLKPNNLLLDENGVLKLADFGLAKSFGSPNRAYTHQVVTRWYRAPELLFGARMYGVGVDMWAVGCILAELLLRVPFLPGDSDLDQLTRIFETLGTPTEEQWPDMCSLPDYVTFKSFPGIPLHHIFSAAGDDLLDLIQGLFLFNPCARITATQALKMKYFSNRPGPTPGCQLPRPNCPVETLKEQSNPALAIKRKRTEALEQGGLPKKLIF
Sequence of CDK7 CCNH MNAT1 (human) (P51946 whole entry, looked up): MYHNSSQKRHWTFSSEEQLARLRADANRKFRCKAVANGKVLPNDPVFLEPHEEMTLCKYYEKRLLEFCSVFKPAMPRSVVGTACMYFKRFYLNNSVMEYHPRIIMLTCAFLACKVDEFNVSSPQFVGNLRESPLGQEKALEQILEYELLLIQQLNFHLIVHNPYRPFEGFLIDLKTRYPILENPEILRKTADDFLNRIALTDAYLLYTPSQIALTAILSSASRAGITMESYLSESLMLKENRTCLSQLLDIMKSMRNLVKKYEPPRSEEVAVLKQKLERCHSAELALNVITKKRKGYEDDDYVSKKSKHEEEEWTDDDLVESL
Sequence of CDK7 CCNH MNAT1 (human) (P51948 whole entry, looked up): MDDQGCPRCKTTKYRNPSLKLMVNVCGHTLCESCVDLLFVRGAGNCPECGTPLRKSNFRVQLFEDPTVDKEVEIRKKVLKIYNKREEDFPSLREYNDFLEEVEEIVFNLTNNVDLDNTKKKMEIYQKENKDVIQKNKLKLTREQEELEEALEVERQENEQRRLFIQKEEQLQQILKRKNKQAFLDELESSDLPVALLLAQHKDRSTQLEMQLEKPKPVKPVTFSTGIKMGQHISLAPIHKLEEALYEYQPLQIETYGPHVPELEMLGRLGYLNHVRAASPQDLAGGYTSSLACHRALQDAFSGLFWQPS
Sequence of NEK6 (human) (Q9HC98 whole entry, looked up): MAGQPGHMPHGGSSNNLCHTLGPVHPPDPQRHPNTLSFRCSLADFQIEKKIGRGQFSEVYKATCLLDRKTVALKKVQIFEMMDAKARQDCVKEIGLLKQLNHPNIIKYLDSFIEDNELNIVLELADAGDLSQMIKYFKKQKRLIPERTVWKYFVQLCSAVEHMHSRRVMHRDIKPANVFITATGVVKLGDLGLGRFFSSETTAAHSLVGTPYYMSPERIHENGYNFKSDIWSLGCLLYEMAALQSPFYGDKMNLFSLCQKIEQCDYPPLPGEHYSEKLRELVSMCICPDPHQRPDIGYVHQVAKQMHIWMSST

Question: With `Cn1cc(-c2cnc3ccc4ccc(CC(=O)NCc5ccccn5)cc4c(=O)c3c2)cn1` as the compound, how does the inhibition (IRAK4 (human); compound 0.1 µM) read?
Answer: The inhibition was 19.8%.

Question: And the inhibition (IRAK4 (human); compound 1.0 µM)?
Answer: Its inhibition is 25.5%.

Question: What about the inhibition (IRAK4 (human); compound 10.0 µM) of the same compound?
Answer: The inhibition was 59%.

Question: And the inhibition (ROCK2 (human); compound 0.1 µM)?
Answer: Its inhibition is -1.9%.

Question: What about the inhibition (ROCK2 (human); compound 1.0 µM) of the same compound?
Answer: Its inhibition is -0.2%.

Question: And the inhibition (ROCK2 (human); compound 10.0 µM)?
Answer: Its inhibition is -5.8%.

Question: And the inhibition (CHEK2 (human); compound 0.1 µM)?
Answer: The inhibition was 11.8%.

Question: And the inhibition (CHEK2 (human); compound 1.0 µM)?
Answer: The inhibition was 17.1%.

Question: What about the inhibition (CHEK2 (human); compound 10.0 µM) of the same compound?
Answer: Its inhibition is 43.6%.

Question: And the inhibition ([1]; compound 0.1 µM)?
Answer: Its inhibition is 26.2%.

Question: And the inhibition ([1]; compound 1.0 µM)?
Answer: The inhibition was 25.4%.

Question: What about the inhibition ([1]; compound 10.0 µM) of the same compound?
Answer: Its inhibition is 7%.

Question: And the inhibition (IRAK1 (human) [2]; compound 0.1 µM)?
Answer: The inhibition was 7.1%.

Question: And the inhibition (IRAK1 (human) [2]; compound 1.0 µM)?
Answer: Its inhibition is 27.1%.

Question: What about the inhibition (IRAK1 (human) [2]; compound 10.0 µM) of the same compound?
Answer: Its inhibition is 66.3%.

Question: What about the inhibition (SRPK1 (human); compound 0.1 µM) of the same compound?
Answer: The inhibition was 11.1%.

Question: And the inhibition (SRPK1 (human); compound 1.0 µM)?
Answer: The inhibition was 11.5%.

Question: What about the inhibition (SRPK1 (human); compound 10.0 µM) of the same compound?
Answer: Its inhibition is 12.5%.

Question: What about the inhibition (CHEK1 (human); compound 0.1 µM) of the same compound?
Answer: The inhibition was 23.2%.

Question: And the inhibition (CHEK1 (human); compound 1.0 µM)?
Answer: The inhibition was -1.2%.

Question: And the inhibition (CHEK1 (human); compound 10.0 µM)?
Answer: The inhibition was 14.2%.

Question: What about the inhibition (AKT2 (human); compound 0.1 µM) of the same compound?
Answer: Its inhibition is 9.8%.

Question: And the inhibition (AKT2 (human); compound 1.0 µM)?
Answer: Its inhibition is 11.3%.

Question: And the inhibition (AKT2 (human); compound 10.0 µM)?
Answer: The inhibition was 15.6%.

Question: What about the inhibition (MAPK13 (human); compound 0.1 µM) of the same compound?
Answer: The inhibition was 14.5%.

Question: And the inhibition (MAPK13 (human); compound 1.0 µM)?
Answer: The inhibition was 15.8%.

Question: And the inhibition (MAPK13 (human); compound 10.0 µM)?
Answer: Its inhibition is 10%.

Question: And the inhibition (TEK (human); compound 0.1 µM)?
Answer: The inhibition was -0.9%.

Question: What about the inhibition (TEK (human); compound 1.0 µM) of the same compound?
Answer: The inhibition was 4.6%.

Question: What about the inhibition (TEK (human); compound 10.0 µM) of the same compound?
Answer: The inhibition was 45.3%.

Question: What about the inhibition (RPS6KB1 (human); compound 0.1 µM) of the same compound?
Answer: Its inhibition is 5.5%.

Question: And the inhibition (RPS6KB1 (human); compound 1.0 µM)?
Answer: Its inhibition is 19.7%.

Question: What about the inhibition (RPS6KB1 (human); compound 10.0 µM) of the same compound?
Answer: The inhibition was 25.1%.

Question: What about the inhibition (TBK1 (human); compound 0.1 µM) of the same compound?
Answer: Its inhibition is -1.6%.

Question: And the inhibition (TBK1 (human); compound 1.0 µM)?
Answer: Its inhibition is 7.8%.

Question: And the inhibition (TBK1 (human); compound 10.0 µM)?
Answer: Its inhibition is 33.2%.

Question: What about the inhibition (TAOK2 (human); compound 0.1 µM) of the same compound?
Answer: The inhibition was 10.9%.

Question: And the inhibition (TAOK2 (human); compound 1.0 µM)?
Answer: Its inhibition is 7%.

Question: And the inhibition (TAOK2 (human); compound 10.0 µM)?
Answer: The inhibition was -17.5%.

Question: What about the inhibition (JAK3 JH1 JH2 (human); compound 0.1 µM) of the same compound?
Answer: The inhibition was 9.3%.

Question: And the inhibition (JAK3 JH1 JH2 (human); compound 1.0 µM)?
Answer: The inhibition was 6.1%.

Question: What about the inhibition (JAK3 JH1 JH2 (human); compound 10.0 µM) of the same compound?
Answer: Its inhibition is 25.6%.

Question: And the inhibition (IKBKB (human); compound 0.1 µM)?
Answer: The inhibition was 4.6%.

Question: And the inhibition (IKBKB (human); compound 1.0 µM)?
Answer: The inhibition was 6.6%.

Question: And the inhibition (IKBKB (human); compound 10.0 µM)?
Answer: The inhibition was 8.5%.

Question: And the inhibition (CDK7 CCNH MNAT1 (human); compound 0.1 µM)?
Answer: The inhibition was 1%.

Question: What about the inhibition (CDK7 CCNH MNAT1 (human); compound 1.0 µM) of the same compound?
Answer: Its inhibition is 6.4%.

Question: What about the inhibition (CDK7 CCNH MNAT1 (human); compound 10.0 µM) of the same compound?
Answer: Its inhibition is 11.8%.

Question: What about the inhibition (NEK6 (human); compound 0.1 µM) of the same compound?
Answer: Its inhibition is 5.2%.

Question: And the inhibition (NEK6 (human); compound 1.0 µM)?
Answer: The inhibition was -7.4%.

Question: And the inhibition (NEK6 (human); compound 10.0 µM)?
Answer: Its inhibition is 9.6%.

Question: And the inhibition (PIM1 (human); compound 0.1 µM)?
Answer: Its inhibition is 6%.

Question: And the inhibition (PIM1 (human); compound 1.0 µM)?
Answer: Its inhibition is 5.4%.

Question: What about the inhibition (PIM1 (human); compound 10.0 µM) of the same compound?
Answer: Its inhibition is 23.6%.

Question: And the inhibition (AURKB (human); compound 0.1 µM)?
Answer: The inhibition was 19.7%.

Question: And the inhibition (AURKB (human); compound 1.0 µM)?
Answer: The inhibition was 51.8%.

Question: What about the inhibition (AURKB (human); compound 10.0 µM) of the same compound?
Answer: The inhibition was 96.4%.

Question: What about the inhibition (LCK (human); compound 0.1 µM) of the same compound?
Answer: The inhibition was 27.2%.

Question: And the inhibition (LCK (human); compound 1.0 µM)?
Answer: Its inhibition is 37.9%.

Question: What about the inhibition (LCK (human); compound 10.0 µM) of the same compound?
Answer: Its inhibition is 77.3%.

Question: What about the inhibition [3] of the same compound?
Answer: Its inhibition is 2.1%.

Question: With `CN(C)S(=O)(=O)Nc1ccc2ccc3ncc(-c4cnn(C)c4)cc3c(=O)c2c1` as the compound, how does the residual activity [4] read?
Answer: The residual activity was 2%.

Question: What about the residual activity (EPHB1 (human)) of the same compound?
Answer: The residual activity was 67%.

Question: What about the residual activity (BRSK1 (human)) of the same compound?
Answer: Its residual activity is 74%.

Question: And the residual activity (IRAK1 (human) [5])?
Answer: The residual activity was 83%.

Question: What about the residual activity (SYK (human)) of the same compound?
Answer: The residual activity was 94%.

Question: And the residual activity [6]?
Answer: The residual activity was 110%.

Question: And the residual activity (PRKCQ (human))?
Answer: The residual activity was 100%.

Question: What about the residual activity (FLT3 (human)) of the same compound?
Answer: The residual activity was 26%.

Question: What about the residual activity (FRK (human)) of the same compound?
Answer: Its residual activity is 104%.
